Columns and labels:
lambsquarters = assay: Test C pre-/postemergence herbicide test; format: in vivo, Chenopodium album
Outline: (§1)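 Greenhouse pots; formulation = non-phytotoxic solvent mix + surfactant. PRE onto seeds in loam:sand; POST at 1–4 leaves (2–18 cm) in peat moss/vermiculite medium. Read-out: visual % control vs untreated, day 13–15.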

soybean = assay: Test C pre-/postemergence herbicide test; format: in vivo, Glycine max
Outline: as §1

barnyardgrass [1] = assay: Test B flooded paddy test; format: in vivo, Echinochloa crus-galli; conditions: Flood, scale of 0 to 100 where 0 is no effect and 100 is complete control
Outline: (§2)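 Plants grown to 2-leaf stage; pots flooded 3 cm above soil and compound applied directly into paddy water, depth held throughout. Visual rating against untreated controls after 13 to 15 days in greenhouse, 0 (no effect) to 100 (complete control).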

velvetleaf = assay: Test C pre-/postemergence herbicide test; format: in vivo, Abutilon theophrasti
Outline: as §1

corn = assay: Test C pre-/postemergence herbicide test; format: in vivo, Zea mays
Outline: as §1

sedge, umbrella = assay: Test B flooded paddy test; format: in vivo, Cyperus difformis; conditions: Flood, scale of 0 to 100 where 0 is no effect and 100 is complete control
Outline: as §2

blackgrass = assay: Test C pre-/postemergence herbicide test; format: in vivo, Alopecurus myosuroides
Outline: as §1

crabgrass, large = assay: Test C pre-/postemergence herbicide test; format: in vivo, Digitaria sanguinalis
Outline: as §1

oat, wild = assay: Test C pre-/postemergence herbicide test; format: in vivo, Avena fatua; conditions: Postemergence
Outline: as §1

wheat (winter wheat) = assay: Test C pre-/postemergence herbicide test; format: in vivo, Triticum aestivum
Outline: as §1

barnyardgrass [2] = assay: Test A pre-/postemergence herbicide test; format: in vivo, Echinochloa crus-galli
Outline: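 Greenhouse pot test with pre- and postemergence application of surfactant-containing solvent formulations. Postemergence plants were 2–10 cm, one- to two-leaf stage. Response scored visually after ~10 days, 0 (no effect) to 100 (complete control).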

[3] = Postemergence, 31 g ai/ha, scale 0 to 100 (0 no effect, 100 complete control)
[4] = Postemergence, 62 g ai/ha, scale 0 (no effect) to 100 (complete control)
[5] = Postemergence, 125 g ai/ha, scale 0 to 100 (0 no effect, 100 complete control)
[6] = Postemergence, 250 g ai/ha, scale 0 to 100 (0 no effect, 100 complete control)
[7] = Preemergence, 31 g ai/ha, scale 0 to 100, 0 is no effect and 100 is complete control
[8] = Preemergence, 62 g ai/ha, scale 0 to 100 (0 no effect, 100 complete control)
[9] = Preemergence, 125 g ai/ha, scale 0 to 100
[10] = 31 g ai/ha, scale 0 to 100 (0 no effect, 100 complete control)
[11] = 62 g ai/ha, scale 0 (no effect) to 100 (complete control)
[12] = 125 g ai/ha, scale 0 to 100 (0 no effect, 100 complete control)
[13] = 250 g ai/ha, scale 0 to 100 (0 no effect, 100 complete control)
[14] = Postemergence, 125 g ai/ha, visual rating on 0 to 100 scale (0 no effect, 100 complete control), approx. 10 days
[15] = Postemergence, 500 g ai/ha, 0 to 100 scale (0 no effect, 100 complete control)
[16] = Preemergence, 125 g ai/ha, 0 to 100 scale where 0 is no effect and 100 is complete control
[17] = Preemergence, 500 g ai/ha, visual rating on 0 to 100 scale (0 no effect, 100 complete control)
[18] = Preemergence, 31 g ai/ha, scale 0 to 100

O=C1NCC(c2cccc(Br)c2)C1C(=O)Nc1ccc(F)c(F)c1F (stereo not drawn) [Compound 310]
55: Plant response rating, Lambsquarters (lambsquarters; [9]) | Plant response rating, Corn (corn; [9]) | Plant response rating (scale of 0 to 100), Corn (corn; Preemergence, 250 g ai/ha)
80: Plant response rating (scale of 0 to 100), Lambsquarters (lambsquarters; Preemergence, 250 g ai/ha)
50: Plant response rating, Blackgrass (blackgrass; [9])
0: Lambsquarters plant response rating (lambsquarters; [7]) | Plant response rating, Soybean (soybean; [5]) | Plant response rating, Soybean (soybean; [6]) | Soybean plant response rating (soybean; [8]) | Plant response rating, Soybean (soybean; [9]) | Plant response rating (scale of 0 to 100), Soybean (soybean; Preemergence, 250 g ai/ha) | Plant response rating, Velvetleaf (velvetleaf; [4]) | Plant response rating, Velvetleaf (velvetleaf; [5]) | Velvetleaf plant response rating (velvetleaf; [8]) | Plant response rating, Corn (corn; [3]) | Plant response rating, Corn (corn; [4]) | Corn plant response rating (corn; [7]) | Corn plant response rating (corn; [8]) | Plant response rating, Sedge, Umbrella (sedge, umbrella; 500 g ai/ha) | Plant response rating, Blackgrass (blackgrass; [3]) | Plant response rating, Blackgrass (blackgrass; [4]) | Blackgrass plant response rating (blackgrass; [7]) | Plant response rating, Crabgrass, Large (crabgrass, large; [3]) | Plant response rating, Oat, Wild (oat, wild; [10]) | Plant response rating, Oat, Wild (oat, wild; [11]) | Plant response rating, Oat, Wild (oat, wild; [12]) | Plant response rating, Oat, Wild (oat, wild; [13]) | Plant response rating, Wheat (wheat (winter wheat); [3]) | Plant response rating, Wheat (wheat (winter wheat); [4]) | Plant response rating, Wheat (wheat (winter wheat); [5]) | Plant response rating, Wheat (wheat (winter wheat); [6]) | Wheat plant response rating (wheat (winter wheat); [8]) | Plant response rating, Wheat (wheat (winter wheat); [9])
30: Plant response rating, Corn (corn; [6])
10: Plant response rating, Soybean (soybean; [3]) | Plant response rating, Soybean (soybean; [4]) | Plant response rating, Crabgrass, Large (crabgrass, large; [4]) | Plant response rating (scale of 0 to 100), Wheat (wheat (winter wheat); Preemergence, 250 g ai/ha)
70: Plant response rating, Lambsquarters (lambsquarters; [6]) | Plant response rating, Crabgrass, Large (crabgrass, large; [5]) | Plant response rating, Crabgrass, Large (crabgrass, large; [6])
40: Plant response rating, Velvetleaf (velvetleaf; [6])
45: Plant response rating (scale of 0 to 100), Blackgrass (blackgrass; Preemergence, 250 g ai/ha)
95: Plant response rating, Crabgrass, Large (crabgrass, large; [9]) | Plant response rating (scale of 0 to 100), Crabgrass, Large (crabgrass, large; Preemergence, 250 g ai/ha)
35: Plant response rating, Velvetleaf (velvetleaf; [3]) | Plant response rating (scale of 0 to 100), Velvetleaf (velvetleaf; Preemergence, 250 g ai/ha)
25: Plant response rating, Lambsquarters (lambsquarters; [3])
5: Lambsquarters plant response rating (lambsquarters; [8]) | Plant response rating, Velvetleaf (velvetleaf; [9]) | Plant response rating, Blackgrass (blackgrass; [5]) | Plant response rating, Blackgrass (blackgrass; [6]) | Blackgrass plant response rating (blackgrass; [8])
60: Plant response rating, Barnyardgrass (barnyardgrass [1]; 500 g ai/ha) | Plant response rating, Corn (corn; [5])
65: Plant response rating, Lambsquarters (lambsquarters; [4]) | Plant response rating, Lambsquarters (lambsquarters; [5])
90: Crabgrass, Large plant response rating (crabgrass, large; [7]) | Crabgrass, Large plant response rating (crabgrass, large; [8]) | Plant response rating, Barnyardgrass (barnyardgrass [2]; [14]) | Plant response rating, Barnyardgrass (barnyardgrass [2]; [15]) | Plant response rating, Barnyardgrass (barnyardgrass [2]; [16]) | Barnyardgrass plant response rating (barnyardgrass [2]; [17])

O=C1NCC(c2ccc(F)c(F)c2)C1C(=O)Nc1ccc(F)c(F)c1F (stereo not drawn) [Compound 346]
80: Plant response rating, Barnyardgrass (barnyardgrass [2]; [14]) | Plant response rating, Barnyardgrass (barnyardgrass [2]; [16])
20: Plant response rating, Velvetleaf (velvetleaf; [6]) | Plant response rating, Blackgrass (blackgrass; [18])
65: Plant response rating, Lambsquarters (lambsquarters; [6])
5: Plant response rating, Lambsquarters (lambsquarters; [4]) | Plant response rating, Lambsquarters (lambsquarters; [5]) | Plant response rating, Soybean (soybean; [4]) | Plant response rating, Soybean (soybean; [6]) | Plant response rating, Velvetleaf (velvetleaf; [5]) | Plant response rating (scale of 0 to 100), Corn (corn; Preemergence, 250 g ai/ha) | Plant response rating, Blackgrass (blackgrass; [6])
45: Plant response rating, Lambsquarters (lambsquarters; [3])
35: Lambsquarters plant response rating (lambsquarters; [8]) | Plant response rating, Lambsquarters (lambsquarters; [18])
60: Blackgrass plant response rating (blackgrass; [8]) | Plant response rating, Crabgrass, Large (crabgrass, large; [5])
0: Plant response rating, Soybean (soybean; [3]) | Plant response rating, Soybean (soybean; [5]) | Soybean plant response rating (soybean; [8]) | Plant response rating, Soybean (soybean; [9]) | Plant response rating, Soybean (soybean; [18]) | Plant response rating, Velvetleaf (velvetleaf; [3]) | Plant response rating, Velvetleaf (velvetleaf; [4]) | Velvetleaf plant response rating (velvetleaf; [8]) | Plant response rating, Velvetleaf (velvetleaf; [18]) | Plant response rating, Corn (corn; [3]) | Plant response rating, Corn (corn; [4]) | Plant response rating, Corn (corn; [5]) | Plant response rating, Corn (corn; [6]) | Corn plant response rating (corn; [8]) | Plant response rating, Corn (corn; [9]) | Plant response rating, Corn (corn; [18]) | Plant response rating, Sedge, Umbrella (sedge, umbrella; 1000 g ai/ha) | Plant response rating, Blackgrass (blackgrass; [3]) | Plant response rating, Blackgrass (blackgrass; [4]) | Plant response rating, Blackgrass (blackgrass; [5]) | Plant response rating, Crabgrass, Large (crabgrass, large; [3]) | Plant response rating, Oat, Wild (oat, wild; [10]) | Plant response rating, Oat, Wild (oat, wild; [11]) | Plant response rating, Oat, Wild (oat, wild; [12]) | Plant response rating, Oat, Wild (oat, wild; [13]) | Plant response rating, Wheat (wheat (winter wheat); [3]) | Plant response rating, Wheat (wheat (winter wheat); [4]) | Plant response rating, Wheat (wheat (winter wheat); [5]) | Plant response rating, Wheat (wheat (winter wheat); [6]) | Wheat plant response rating (wheat (winter wheat); [8]) | Plant response rating, Wheat (wheat (winter wheat); [9]) | Plant response rating, Wheat (wheat (winter wheat); [18])
100: Plant response rating, Lambsquarters (lambsquarters; [9]) | Plant response rating (scale of 0 to 100), Lambsquarters (lambsquarters; Preemergence, 250 g ai/ha) | Plant response rating (scale of 0 to 100), Crabgrass, Large (crabgrass, large; Preemergence, 250 g ai/ha)
85: Plant response rating, Barnyardgrass (barnyardgrass [1]; 1000 g ai/ha) | Plant response rating (scale of 0 to 100), Blackgrass (blackgrass; Preemergence, 250 g ai/ha)
75: Plant response rating, Blackgrass (blackgrass; [9]) | Plant response rating, Crabgrass, Large (crabgrass, large; [6])
95: Crabgrass, Large plant response rating (crabgrass, large; [8]) | Plant response rating, Crabgrass, Large (crabgrass, large; [18])
90: Plant response rating, Barnyardgrass (barnyardgrass [2]; [15]) | Barnyardgrass plant response rating (barnyardgrass [2]; [17])
98: Plant response rating, Crabgrass, Large (crabgrass, large; [9])
25: Plant response rating, Crabgrass, Large (crabgrass, large; [4])
10: Plant response rating, Velvetleaf (velvetleaf; [9])

— patent publication US10294202B2, “Pyrrolidinones as herbicides” (FMC Corporation, priority 2013, dated 2019)
